Results taken from patent US20060234278A1, “Sequences used to identify if a female mammal comprises a mutation in the alpha-fetoprotein sequence(S) or a partial or total deletion of the alpha-fetoprotein sequence(S)” (priority 1999, published 2006).

Legend:
Assay type in all cases: in vivo, mouse
estrogen synthesis = assay: Serum estradiol levels of ATD-treated gestating females by RIA assay; conditions: heterozygous gestating females, daily s.c. 4 mg ATD from day 13.5 of gestation; 10 pg/ml is the RIA detection limit
Experimental: (§1) Females heterozygous for the Afp tm2Ibmm allele (CD1 strain, 8th backcross level) were mated with Afp tm2Ibmm homozygous males and housed under the conditions described above. They then received a daily subcutaneous injection in the neck of 4 mg of the aromatase inhibitor ATD (1, 4, 6-androstatrien-3,17-dione, Steraloids, Newport, R.I.) dissolved in propylene glycol, from the 13.5th day of gestation (day 0.5 is defined as the day of vaginal plug detection) until the end of gestation. Controls were injected with propylene glycol only. Pups were born naturally or retrieved by Caesarian operation on embryonic day 20.5. Blood from the mothers was taken from the hart and estradiol levels were measured by classical RIA assay. Fertility of female pups was tested at the age of 2-3 months. In parallel, sisters of the female pups tested were dissected at the age of 3 months and total RNA was extracted from the pituitary and the hypothalamus as described above. cDNA was obtained using the TaqMan Reverse Transcription Reagents kit (Applied Biosystems) and real time PCR was performed on the 7300 Real Time PCR System (Applied Biosystems) with the Platinum Quantitative PCR SuperMix-UDG kit (Invitrogen) and the TaqMan Gene Expression Assays (Applied Biosystems) for pituitary genes except for Egr1. […]

[1] = tested on: Gnrh2 gene expression in the hypothalamus; assay: Real time PCR Gnrh2 gene expression in hypothalamus of prenatally ATD-treated AFP KO females; conditions: prenatal ATD-treated AFP KO mice (n=7), normalized to Hprt
Experimental: as §1

[2] = tested on: Ucp1, Isp2, Egr1, Gnrhr expression in the pituitary; assay: Real time PCR gene expression in pituitary of prenatally ATD-treated AFP KO females; conditions: prenatal ATD-treated AFP KO females (n=7)
Experimental: as §1

AFP KO females = assay: Fertility of AFP KO female pups after prenatal ATD treatment
Experimental: as §1

SMILES: C[C@]12C=CC(=O)C=C1C=C[C@@H]1[C@@H]2CC[C@]2(C)C(=O)CC[C@@H]12 [ATD, 1,4,6-androstatrien-3,17-dione]
- Serum estradiol levels (estrogen synthesis): < 10 pg/mL
- Gnrh2 expression level in hypothalamus [1]: not increased
- Pituitary gene expression levels vs untreated KO females ([2]; normalized to Hprt, p=0.044): statistically different from those of the untreated KO females
- Pituitary gene expression levels vs heterozygous untreated females ([2]; p=0.508, except Isp2 (p=0.014)): not statistically different from those of the heterozygous, untreated females
- Fertility of female pups (AFP KO females; AFP KO and heterozygous pups from ATD-injected mothers, tested at 2-3 months, 8 KO and 17 heterozygous pups tested): fertile
- Litter size (AFP KO females; litters born to prenatally ATD-treated AFP KO and heterozygous females): normal size
